{"source": "patent US20080241240A1", "about": "“COMBINED PHARMACEUTICAL FORMULATION WITH CONTROLLED-RELEASE COMPRISING DIHYDROPYRIDINE CALCIUM CHANNEL BLOCKERS AND HMG-COA REDUCTASE INHIBITORS” (HANALL Pharmaceutical Co., Ltd., priority 2006, published 2008)", "origin": "cited, not measured here", "conditions": "orally administered as single pill", "data": [{"smiles": "CCOC(=O)C1=C(COCCN)NC(C)=C(C(=O)OC)C1c1ccccc1Cl", "note": "(stereo not shown) [Amlodipine, 3-ethyl-5-methyl-2-(2-aminoethoxymethyl)-4-(2-chlorophenyl)-1,4-dihydro-6-methyl-3,5-pyridinedicarboxylate]", "values": [{"measurement": "remaining, present in blood", "result": 60, "unit": "%"}]}]}
